From US20040171795A1, “Novel peptides” (priority 2000, published 2004)
Where no end group is shown, it is not given here.

How the values were obtained:
[1] = Evaluation of toxicity of the peptide, tail vein administration; format: in vivo; conditions: female BALB/c mouse, 5 mg/kg
Procedure: The peptide of the present invention was administered to a mouse from its tail vein to thereby evaluate its toxicity. The mouse used was a female BALB/c mouse of 5 week old, and the peptide was used at a dose of 5 mg/kg.

[2] = system: cell (Vero, T24 or A549 of Example 9; not given); experiment: Nucleic acid-introducing ability, luciferase-expressing plasmid (procedure of Example 9); format: cell-based
Description: A cell line established from monkey kidney (Vero cell) and a human bladder cancer cell (T24 cell) purchased from American Type Culture Collection (ATCC) and human lung cancer cell (A549 cell) purchased from Dainippon Pharmaceutical were inoculated on a 24 well culture plate (manufactured by NALGEN NUNC) at 1×10^5 cells/well. Vero cell and A549 cell were cultivated in DMEM (manufactured by Life Technologies Oriental) supplemented with 10% fetal bovine serum (hereinafter referred to as FBS, manufactured by NICHIREI), and T24 cell was cultivated in McCoy's 5a (manufactured by Life Technologies Oriental) supplemented with 10% FBS in 5% CO2 atmosphere at 37° C. for 24 hours. After removing the medium, opti-MEM (manufactured by Life Technologies Oriental) prepared to have the concentration of the luciferase-expressing plasmid prepared in Example 7 of 1 μg/mL and the concentration of the peptide prepared in Example 1 of 1.25, 2.5, or 5 μM was added, and the cells were cultivated for 5 hours. Next, in the case of Vero cell and A549 cell, the culture medium was replaced with DMEM supplemented with 10% FBS, and in the case of T24 cell, the medium was replaced with McCoy's 5a supplemented with 10% FBS, and cultivation was continued in 5% CO2 atmosphere and at 37° C. for another 24 hours. The luciferase activity expressed in the cell was then measured by the method instructed in luciferase assay system (manufactured by Promega). To be more specific, the cells were washed with phosphate-buffered saline (hereinafter referred to as PBS, manufactured by SIGMA), and the cells were lyzed with Passive Lysis Buffer attached to the kit. 20 μL of this cell lysate and 100 μL of the Luciferase Assay Reagent II attached to the kit was added to a fluorescence-measuring plate (Microlite™ 1 plate, manufactured by Dynatech), and after mixing, fluorescence was measured for 1 second by using a multilabel counter (ARVO™ SY1420 MULTILABEL COUNTER, manufactured by Wallac Beltold.
Concentration of the protein in the cell lysate was measured by mixing 8 μL of the cell lysate and 200 μL of the protein assay solution (manufactured by Biorad) with 792 μL of ultrapure water in a disposable cuvette (UV fluorescent cuvette A204X, manufactured by Funakoshi), allowing the mixture to stand for 5 minutes at room temperature, and measuring the absorption at 595 nm with a spectrophotometer (DU640, manufactured by Beckman). Bovine serum albumin (BSA) was used for the standard protein. By using the thus obtained results, count per 1 second per 1 mg of protein of the cell lysate was calculated to thereby use the count as the luciferase activity, and the highest count in the three conditions of different peptide concentration was designated the gene-introducing ability of the peptide.
It is to be noted that the nucleic acid-introducing ability was classified as described below on the bases of the fluorescent count per 1 mg of protein per 1 second (cps/mg protein).

[3] = Affinity by surface plasmon resonance (Biacore 2000), flow cell 2; format: binding; conditions: SPR, HPA chip, 0.1 mg/mL BSA; compared with flow cell 1
Procedure: (§1) The specific affinity of the peptide for phosphatidyl serine was evaluated by means of surface plasmon resonance (SPR) using Biacore 2000 (manufactured by Biacore). To be more specific, phosphatidyl choline was immobilized on flow cell 1, and 50% of phosphatidyl serine and 50% of phosphatidyl choline were immobilized on flow cell 2 of HPA chip (manufactured by Biacore), and ability of the peptide to bind to the phospholipid was evaluated in the presence of 0.1 mg/mL BSA to thereby evaluate the affinity.

[4] = Affinity by surface plasmon resonance (Biacore 2000), flow cell 1; format: binding; conditions: SPR, HPA chip, 0.1 mg/mL BSA
Procedure: as §1

[5] = Measurement of CD spectrum; format: physicochemical
Procedure: The peptide dissolved in 10 mM phosphate buffer (pH=7) containing 50 mM NaCl was evaluated for its CD spectrum in the presence and in the absence of 5 mM SDS by using a circular dichroism spectrophotometer (J-500A, manufactured by JASCO). The cell length was 1 mm. The measurement was conducted at 35° C. for 6 times in total. FIGS. 7 to 9 are respectively views showing mean residue ellipticity in CD spectroscopy of the peptide of SEQ ID NO:1, the peptide of SEQ ID NO:4 and the peptide of SEQ ID NO:16. As evident in FIGS. 7 to 9, the mean residue ellipticity obtained in the presence of SDS was the so called W curve and local minimums were found in the areas at the wavelength of 205 to 210 nm and 220 to 225 nm, and α-helix structure was thereby confirmed.

[6] = system: Vero cell; experiment: Storage stability of the complex with nucleic acid (luciferase activity); format: cell-based, monkey; conditions: luciferase-expressing plasmid 2 μg/mL, peptide 5 μM; reagents per attached protocol
Procedure: Luciferase-expressing plasmid was introduced in Vero cell in accordance with the procedure described in Example 9 by using the opti-MEM prepared to have a concentration of the luciferase-expressing plasmid prepared in Example 7 of 2 μg/mL and a concentration of the peptide of SEQ ID NO:4 prepared in Example 1 of 5 μM to thereby measure the luciferase activity. The opti-MEM containing plasmid and peptide used were the one which had been prepared immediately before the gene introduction, and the one which had been prepared 1 week (7 days) in advance and stored at 4° C.
For the purpose of reference, gene-introducing activity of Lipofectin and LipofectAMINE 2000 (manufactured by Life Technologies Oriental), which are commercially available plasmid-introducing agents, were also evaluated by mixing these reagent with luciferase-expressing plasmid in accordance with the attached protocol, and evaluating their gene-introducing activity after storing at 4° C. for 1 week.

**Q.** For LARLLARLLARLLRALLRALLRAL [SEQ ID NO:27], which “toxicity after tail vein administration” value [1] is on record?
**A.** Its value is “died immediately after the administration”.

**Q.** For “SEQ ID NO:25: comparative peptide, same amino acid composition as SEQ ID NO:1 but an utterly random amino acid sequence (TIRYRPSHQIRLRAVLHLWIRYRPSHQIRLRAVLHWS; synthetic peptide using an automatic peptide synthesizer) [reference compound]”, which “ability of introducing the nucleic acid into a cell” value ([2]; procedure of Example 9, luciferase-expressing plasmid) is on record?
**A.** The value was “neither the nucleic acid-introducing ability”.

**Q.** And the “binding to flow cell 2 (50% phosphatidyl serine, 50% phosphatidyl choline)” value [3]?
**A.** The value was “no binding”.

**Q.** What about the “binding to flow cell 1 (phosphatidyl choline)” value [4] of the same substance?
**A.** The value was “no binding”.

**Q.** And the “α-helix structure in CD spectrum in the presence of SDS” value ([5]; 5 mM SDS, 10 mM phosphate buffer pH 7, 50 mM NaCl, 35° C.)?
**A.** Its value is “no α-helix structure is found”.

**Q.** What does the source list for “SEQ ID NO: 4: peptide of SEQ ID NO:1 with one or two locations substituted in the 18 amino acid sequence (TRYLRIHPRSWLHQIALRLRYLRIHPRSWLHQIALRS; synthetic peptide using an automatic peptide synthesizer)”?
**A.** Nucleic acid-introducing ability ([2]; class of fluorescent count per 1 mg of protein per 1 second, highest of peptide 1.25, 2.5, 5 μM, plasmid 1 μg/mL): 4+ (10,000,000 or more); gene-introducing activity after storing the complex at 4° C. for 1 week, relative to freshly prepared complex [6]: substantially equivalent; α-helix structure in CD spectrum in the absence of SDS ([5]; aqueous solution solely containing an inorganic salt, pH 7, 35° C.): do not take α-helix structure
